{"source": "patent US4221907A", "about": "“Substituted O-α-D and O-β-D-multi-galactopyranosyl and glucopyranosyl 1→4 and 1→6 galactopyranosyl 1→6 α-D-glucopyranoses” (American Cyanamid Company, priority 1979, dated 1980)", "key": {"[1]": {"system": "complement system", "conditions": "reported, British Journal of Experimental Pathology, 33, 327-339 (1952); cited from earlier work"}, "[2]": {"molecular_target": "human C1 (Homo sapiens, UniProt P09871)", "sequence (P09871 16-688)": "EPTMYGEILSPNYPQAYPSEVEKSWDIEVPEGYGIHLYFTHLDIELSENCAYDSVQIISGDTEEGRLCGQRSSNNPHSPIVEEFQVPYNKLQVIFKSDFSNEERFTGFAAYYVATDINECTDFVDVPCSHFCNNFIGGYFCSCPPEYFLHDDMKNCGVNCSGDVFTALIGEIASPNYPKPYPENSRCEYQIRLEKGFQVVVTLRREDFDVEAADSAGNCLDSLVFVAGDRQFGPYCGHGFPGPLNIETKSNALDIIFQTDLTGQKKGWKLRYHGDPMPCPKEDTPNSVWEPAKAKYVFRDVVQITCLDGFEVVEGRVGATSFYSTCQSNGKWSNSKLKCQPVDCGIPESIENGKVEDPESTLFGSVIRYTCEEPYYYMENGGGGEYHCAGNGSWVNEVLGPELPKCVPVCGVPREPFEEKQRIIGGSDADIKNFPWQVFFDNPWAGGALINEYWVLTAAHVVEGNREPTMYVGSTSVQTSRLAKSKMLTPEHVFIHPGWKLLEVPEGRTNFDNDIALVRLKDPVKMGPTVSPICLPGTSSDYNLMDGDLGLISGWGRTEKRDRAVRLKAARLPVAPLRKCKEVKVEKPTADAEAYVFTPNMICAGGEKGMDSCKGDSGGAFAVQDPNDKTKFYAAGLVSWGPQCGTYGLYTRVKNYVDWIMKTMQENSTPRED", "sequence (P00736 18-705 partner)": "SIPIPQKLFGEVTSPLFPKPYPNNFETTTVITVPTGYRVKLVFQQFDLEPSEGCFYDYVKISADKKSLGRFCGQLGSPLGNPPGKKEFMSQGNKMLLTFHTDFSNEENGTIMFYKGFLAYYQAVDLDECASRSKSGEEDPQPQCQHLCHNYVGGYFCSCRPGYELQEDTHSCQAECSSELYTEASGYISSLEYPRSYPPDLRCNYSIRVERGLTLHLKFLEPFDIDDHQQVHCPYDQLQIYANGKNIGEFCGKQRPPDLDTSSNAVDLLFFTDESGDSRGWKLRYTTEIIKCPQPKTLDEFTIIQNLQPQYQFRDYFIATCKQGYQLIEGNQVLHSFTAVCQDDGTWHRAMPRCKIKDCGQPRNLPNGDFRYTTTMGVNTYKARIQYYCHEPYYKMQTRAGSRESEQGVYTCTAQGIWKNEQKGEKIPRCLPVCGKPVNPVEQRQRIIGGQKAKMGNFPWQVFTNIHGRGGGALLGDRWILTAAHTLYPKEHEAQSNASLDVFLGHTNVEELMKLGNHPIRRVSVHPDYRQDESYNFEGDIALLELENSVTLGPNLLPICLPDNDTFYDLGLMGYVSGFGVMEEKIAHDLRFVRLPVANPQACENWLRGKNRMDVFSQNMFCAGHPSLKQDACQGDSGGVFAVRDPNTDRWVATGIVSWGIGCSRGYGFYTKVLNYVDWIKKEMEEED", "sequence (P02745 23-245 partner)": "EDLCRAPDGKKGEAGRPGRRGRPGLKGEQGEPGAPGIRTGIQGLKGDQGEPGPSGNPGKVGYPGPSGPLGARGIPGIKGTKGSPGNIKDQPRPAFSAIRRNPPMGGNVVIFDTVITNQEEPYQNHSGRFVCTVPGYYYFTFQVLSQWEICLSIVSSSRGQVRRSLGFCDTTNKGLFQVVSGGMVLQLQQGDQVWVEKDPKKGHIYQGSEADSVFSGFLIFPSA", "sequence (P02746 28-253 partner)": "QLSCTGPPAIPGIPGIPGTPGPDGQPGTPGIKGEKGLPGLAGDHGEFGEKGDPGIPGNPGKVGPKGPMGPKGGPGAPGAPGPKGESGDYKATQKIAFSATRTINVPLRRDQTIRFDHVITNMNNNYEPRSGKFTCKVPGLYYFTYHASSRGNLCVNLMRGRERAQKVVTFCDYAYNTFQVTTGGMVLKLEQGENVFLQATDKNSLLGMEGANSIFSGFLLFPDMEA", "sequence (P02747 29-245 partner)": "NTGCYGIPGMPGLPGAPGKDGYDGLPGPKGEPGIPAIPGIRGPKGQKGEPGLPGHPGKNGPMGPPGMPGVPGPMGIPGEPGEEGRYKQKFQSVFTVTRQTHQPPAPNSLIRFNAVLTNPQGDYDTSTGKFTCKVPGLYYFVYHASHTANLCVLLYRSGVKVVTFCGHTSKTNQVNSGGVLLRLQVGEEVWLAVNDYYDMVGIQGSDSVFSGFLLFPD", "assay": "Test Code 026 (C1 inhibitor): activated human C1 destroys fluid phase human C2 in presence of C4", "assay_type": "biochemical", "conditions": "activity in wells, twofold serial dilution; higher well number indicates higher activity", "text": "(§1) An active inhibitor protects C2 from C1 and C4; (ii) Test Code 035 (C3-C9 inhibitor)--This test determines the ability of the late components of human complement (C3-C9) to lyse EAC 142 in the presence of appropriate dilutions of the test compound. An active inhibitor protects EAC 142 from lysis by human C3-C9; (iii) Test Code 036 (C-Shunt inhibitor)--In this test human erythrocytes rendered fragile are lysed in autologous serum via the shunt pathway activated by cobra venom factor in the presence of appropriate dilutions of the test compound. Inhibition of the shunt pathway results in failure of lysis; (iv) Forssman Vasculitis Test--Here, the well known complement dependent lesion, Forssman vasculitis, is produced in guinea pigs by intradermal injection of rabbit anti-Forssman antiserum. The lesion is measured in terms of diameter, edema and hemorrhage and the extent to which a combined index of these is inhibited by prior intraperitoneal injection of the test compound at 200 mg/kg is then reported, unless otherwise stated; (v) Forssman Shock Test--Lethal shock is produced in guinea pigs by an i.v. injection of anti-Forssman antiserum and the harmonic mean death time of treated guinea pigs is compared with that of the simultaneous controls; (vi) Complement Level Reduction Test--In this test, the above dosed guinea pigs, or others are bled for serum and the complmenet level is determined in undiluted serum by the capillary tube method of U.S. Pat. No. 3,876,376 and compared to undosed control guinea pigs; (vii) Cap 50 Test--Here, appropriate amounts of the test compound are added to a pool of guinea pig serum in vitro, after which the undiluted serum capillary tube assay referred to above is run. The concentration of compound inhibiting 50% is reported.\n(§2) **Activity in wells, a serial dilution assay; higher well number indicate\n(§3) higher activity. The serial dilutions are twofold-"}, "[3]": {"system": "human complement (C3-C9)", "assay": "Test Code 035 (C3-C9 inhibitor): lysis of EAC 142 by late components of human complement", "assay_type": "biochemical", "conditions": "activity in wells, twofold serial dilution; higher well number indicates higher activity", "text": "as §1, §2, §3"}, "[4]": {"system": "shunt pathway", "assay": "Test Code 036 (C-Shunt inhibitor): lysis of human erythrocytes in autologous serum via shunt pathway activated by cobra venom factor", "assay_type": "biochemical", "conditions": "activity in wells, twofold serial dilution; higher well number indicates higher activity", "text": "as §1, §2, §3"}, "[5]": {"system": "whole complement", "assay": "In vivo activity (Guinea Pig): serum whole complement by capillary tube assay after dosing", "conditions": "Intraperitoneal, 200 mg/kg"}, "[6]": {"system": "hereditary angio-neurotic edema", "conditions": "reported in the literature; cited from earlier work"}, "[7]": {"system": "total hemolytic complement activity", "conditions": "in vitro and in vivo, as judged by reduction in total hemolytic complement activity; cited from earlier work"}}, "note": "Counter-ions that a name gives are not always drawn.", "data": [{"compound": "Nc1ccc2cc(S(=O)(=O)[O-])cc(O)c2c1N=Nc1ccc(NC(=O)Nc2ccc(N=Nc3c(N)ccc4cc(S(=O)(=O)[O-])cc(O)c34)c(S(=O)(=O)[O-])c2)cc1S(=O)(=O)[O-].[Na+].[Na+].[Na+].[Na+]", "note": "[chlorazol fast pink, 3,3'-ureylenebis[6-(2-amino-8-hydroxy-6-sulfo-1-naphthylazo)benzenesulfonic acid], tetrasodium salt]", "values": [{"measurement": "anticomplementary effect", "setting": "[1]", "value": "anticomplementary effect"}]}, {"compound": "O=S(=O)(O)OC[C@H]1O[C@H](OC[C@H]2O[C@@H](OC[C@H]3O[C@H](OC[C@H]4O[C@H](OS(=O)(=O)O)[C@H](OS(=O)(=O)O)[C@@H](OS(=O)(=O)O)[C@@H]4OS(=O)(=O)O)[C@H](OS(=O)(=O)O)[C@@H](OS(=O)(=O)O)[C@H]3OS(=O)(=O)O)[C@H](OS(=O)(=O)O)[C@@H](OS(=O)(=O)O)[C@@H]2OS(=O)(=O)O)[C@H](OS(=O)(=O)O)[C@@H](OS(=O)(=O)O)[C@H]1OS(=O)(=O)O", "note": "[drawing 9, O-α-D-galactopyranosyl(1→6)-O-β-D-glucopyranosyl(1→6)-O-α-D-galactopyranosyl(1→6)-α-D-glucopyranose [gal 1α,6 glc 1β,6 gal 1α,6 glc] tetradecakis (H-sulfate), tetradecasodium salt]", "values": [{"measurement": "C1 026 Wells", "setting": "[2]", "value": "+9 Wells"}, {"measurement": "C-Late 035 Wells", "setting": "[3]", "value": "+1 Wells"}, {"measurement": "Shunt Inhibition 036 Wells", "setting": "[4]", "value": "+6 Wells"}, {"measurement": "In vivo Activity (Guinea Pig) % Inhibition", "setting": "[5]; 30 min", "value": -44, "unit": "%"}, {"measurement": "In vivo Activity (Guinea Pig) % Inhibition", "setting": "[5]; 60 min", "value": -55, "unit": "%"}, {"measurement": "In vivo Activity (Guinea Pig) % Inhibition", "setting": "[5]; 120 min", "value": -80, "unit": "%"}]}, {"compound": "O=S(=O)(O)OC[C@H]1O[C@@H](OC[C@H]2O[C@H](OC[C@H]3OC(OS(=O)(=O)O)[C@H](OS(=O)(=O)O)[C@@H](OS(=O)(=O)O)[C@@H]3OS(=O)(=O)O)[C@H](OS(=O)(=O)O)[C@@H](OS(=O)(=O)O)[C@H]2OS(=O)(=O)O)[C@H](OS(=O)(=O)O)[C@@H](OS(=O)(=O)O)[C@@H]1O[C@H]1O[C@H](COS(=O)(=O)O)[C@@H](OS(=O)(=O)O)[C@H](OS(=O)(=O)O)[C@H]1OS(=O)(=O)O", "note": "(stereo partly drawn) [drawing 11, O-α-D-glucopyranosyl(1→4)-O-β-D-glucopyranosyl(1→6)-O-α-D-galactopyranosyl(1→6)-D-glucopyranose [glc 1α,4 glc 1β,6 gal 1α,6 glc] tetradecakis (H-sulfate), tetradecasodium salt]", "values": [{"measurement": "C1 026 Wells", "setting": "[2]", "value": "+10 Wells"}, {"measurement": "C-Late 035 Wells", "setting": "[3]", "value": "+1 Wells"}, {"measurement": "Shunt Inhibition 036 Wells", "setting": "[4]", "value": "+6 Wells"}, {"measurement": "In vivo Activity (Guinea Pig) % Inhibition", "setting": "[5]; 30 min", "value": -54, "unit": "%"}, {"measurement": "In vivo Activity (Guinea Pig) % Inhibition", "setting": "[5]; 60 min", "value": -45, "unit": "%"}, {"measurement": "In vivo Activity (Guinea Pig) % Inhibition", "setting": "[5]; 120 min", "value": -39, "unit": "%"}]}, {"compound": "O=S(=O)(O)OC[C@H]1O[C@@H](OC[C@H]2O[C@H](OC[C@H]3OC(OS(=O)(=O)O)[C@H](OS(=O)(=O)O)[C@@H](OS(=O)(=O)O)[C@@H]3OS(=O)(=O)O)[C@H](OS(=O)(=O)O)[C@@H](OS(=O)(=O)O)[C@H]2OS(=O)(=O)O)[C@H](OS(=O)(=O)O)[C@@H](OS(=O)(=O)O)[C@@H]1O[C@H]1O[C@H](COS(=O)(=O)O)[C@@H](O[C@H]2O[C@H](COS(=O)(=O)O)[C@@H](O[C@H]3O[C@H](COS(=O)(=O)O)[C@@H](O[C@H]4O[C@H](COS(=O)(=O)O)[C@@H](O[C@H]5O[C@H](COS(=O)(=O)O)[C@@H](O[C@H]6O[C@H](COS(=O)(=O)O)[C@@H](OS(=O)(=O)O)[C@H](OS(=O)(=O)O)[C@H]6OS(=O)(=O)O)[C@H](OS(=O)(=O)O)[C@H]5OS(=O)(=O)O)[C@H](OS(=O)(=O)O)[C@H]4OS(=O)(=O)O)[C@H](OS(=O)(=O)O)[C@H]3OS(=O)(=O)O)[C@H](OS(=O)(=O)O)[C@H]2OS(=O)(=O)O)[C@H](OS(=O)(=O)O)[C@H]1OS(=O)(=O)O", "note": "(stereo partly drawn) [drawing 17, O-α-D-glucopyranosyl(1→4)-O-α-D-glucopyranosyl(1→4)-O-α-D-glucopyranosyl(1→4)-O-α-D-glucopyranosyl(1→4)-O-α-D-glucopyranosyl(1→4)-O-α-D-glucopyranosyl(1→4)-O-β-D-glucopyranosyl(1→6)-O-α-D-galactopyranosyl(1→6)-D-glucopyranose [(glc 1α,4)6 glc 1β,6 gal 1α,6 glc] nonacosakis (H-sulfate), non-acosasodium salt]", "values": [{"measurement": "C1 026 Wells", "setting": "[2]", "value": "+9 Wells"}, {"measurement": "C-Late 035 Wells", "setting": "[3]", "value": "+3 Wells"}, {"measurement": "Shunt Inhibition 036 Wells", "setting": "[4]", "value": "+5 Wells"}]}, {"compound": "NCCCCCC(=O)O", "note": "[epsilon-aminocaproic acid]", "values": [{"measurement": "treatment of hereditary angio-neurotic edema", "setting": "[6]", "value": "used with success"}]}, {"compound": "NC[C@H]1CC[C@H](C(=O)O)CC1", "note": "[tranexamic acid]", "values": [{"measurement": "treatment of hereditary angio-neurotic edema", "setting": "[6]", "value": "used with success"}]}, {"compound": "heparin", "values": [{"measurement": "anticomplementary effect", "setting": "[1]", "value": "anticomplementary effect"}]}, {"compound": "pentosan-polysulfoester", "values": [{"measurement": "anticomplementary activity on human serum", "setting": "[7]", "value": "anticomplementary activity on human serum, both in vitro and in vivo"}]}]}
